IC50 and IC90 data for 36 molecules are collected here from ChEMBL document CHEMBL4483862, “Open-source discovery of chemical leads for next-generation chemoprotective antimalarials” (2018).

SMILES strings stand for the structures.

The assay has as its system Plasmodium berghei. Briefly: Luciferase/luciferin-expressing antifolate-resistant parasites were used to infect a culture of HepG2 cells that were pre-incubated with compounds. Infected hepatocytes emit light due to the luciferase reaction. Assay results are presented as the percent inhibition of light emission compared to control. […]. In kind it is functional. The note with it: sporozoite; for IC90: read-out: LUCIFERASE INFECTION ASSAY - IC90.

Setting [1] is: read-out: LUCIFERASE INFECTION ASSAY - IC50.

In the case of `CCCOc1c(Cl)cc(C(=O)N2CCN(c3cccc(C)c3C)CC2)cc1OC`, the IC90 is above 10 µM. For the same molecule, the IC50 (HEPG2TOX_HILL_SLOPE 9.26, HEPG2TOX_R_SQUARED 0.489, PBLUC_HILL_SLOPE 10.9, 0.598, PBLUC_R_SQUARED 0.349, 0.728, read-out: LUCIFERASE INFECTION ASSAY - IC50) came to 3.13 µM.

With `Cc1cc(C(=O)NNC(=O)c2ccc3ccccc3n2)c2cnn(Cc3cccs3)c2n1`, the IC90 was 9.16 µM. Moreover, the 50% inhibitory concentration (IC50) (HEPG2TOX_HILL_SLOPE 8.79, HEPG2TOX_R_SQUARED 0.448, PBLUC_HILL_SLOPE 5.17, PBLUC_R_SQUARED 0.697, read-out: LUCIFERASE INFECTION ASSAY - IC50) turned out to be 5.99 µM.

In the case of `CC12CCC(CC1=NNc1nc3ccccc3o1)C2(C)C` (configuration not stated), the IC90 was above 10 µM. For the same molecule, the IC50 (PBLUC_HILL_SLOPE 0.724, PBLUC_R_SQUARED 0.679, read-out: LUCIFERASE INFECTION ASSAY - IC50) came to 4.33 µM.

Take `Cc1nc(-c2ccccn2)nc(NCc2ccccc2)c1Cl`: the IC90 was 9.83 µM. In addition, the concentration for half-maximal inhibition (IC50) (PBLUC_HILL_SLOPE 11, PBLUC_R_SQUARED 0.469, read-out: LUCIFERASE INFECTION ASSAY - IC50) came out at 8.06 µM.

With `O=C(Cc1coc2ccc3ccccc3c12)Nc1cc(Cl)ccc1N1CCOCC1`, the IC90 is above 10 µM. For the same molecule, the IC50 (FFLUC_HILL_SLOPE 11.6, FFLUC_R_SQUARED 0.426, read-out: LUCIFERASE INFECTION ASSAY - IC50) was above 10 µM.

Consider `CC(Nc1ccc(C(F)(F)F)cc1[N+](=O)[O-])C(=O)Nc1ccccc1C(=O)Nc1cccc(Cl)c1` (configuration not stated), for which the IC90 was above 10 µM. In addition, under setting [1], the concentration for half-maximal inhibition (IC50) is above 10 µM.

For the molecule `NC1=CC(=O)c2ccccc2C1=O`, the IC90 was above 19.1 µM. For the same molecule, under “PBLUC_HILL_SLOPE 2.49, PBLUC_R_SQUARED 0.187, read-out: LUCIFERASE INFECTION ASSAY - IC50”, the IC50 is 12 µM.

For `Cc1cc(-n2c(C)cc(/C=C3\S/C(=N\C4CCCC4)NC3=O)c2C)no1`, the IC90 is above 10 µM. Besides, the IC50 (PBLUC_HILL_SLOPE 2.3, PBLUC_R_SQUARED 0.376, read-out: LUCIFERASE INFECTION ASSAY - IC50) came out at 5.21 µM.

`CC(C)(C)c1ccc(C(=O)Nc2cc(Cl)ccc2OC(=O)c2ccc(C(C)(C)C)cc2)cc1`: the IC90 was above 7.11 µM. Besides, the 50% inhibitory concentration (IC50) (PBLUC_HILL_SLOPE 0.69, PBLUC_R_SQUARED 0.715, read-out: LUCIFERASE INFECTION ASSAY - IC50) was determined as 0.555 µM.

With `CCOC(=O)c1sc(NC(=O)Nc2ccc([N+](=O)[O-])cc2)cc1C`, the IC90 came to 4.91 µM. The IC50 (HEPG2TOX_HILL_SLOPE 2.1, HEPG2TOX_R_SQUARED 0.922, PBLUC_HILL_SLOPE 2.24, PBLUC_R_SQUARED 0.786, read-out: LUCIFERASE INFECTION ASSAY - IC50) worked out at 1.84 µM.

In the case of `COc1cc(C(O)c2cc(C(F)(F)F)cc(C(F)(F)F)c2)cc(OC)c1OC` (configuration not stated), the IC90 was above 8.04 µM. Besides, the half-inhibitory concentration (IC50) under setting [1] was found to be 7.33 µM.

For the molecule `CN(C)C(=O)c1cccc(-c2cn3c(-c4ccc5c(ccn5C)c4)cnc3cn2)c1`, the IC90 was above 8.34 µM. The IC50 (HEPG2TOX_HILL_SLOPE 2.46, HEPG2TOX_R_SQUARED 0.94, PBLUC_HILL_SLOPE 1.63, PBLUC_R_SQUARED 0.793, read-out: LUCIFERASE INFECTION ASSAY - IC50) amounted to 2.64 µM.

Turning to `Cc1cc(C)c(-c2csc(NC(=O)c3cc(-c4ccccc4)nn3-c3ccccc3)n2)c(C)c1`, the concentration for an effect of 90% (IC90) is above 10 µM. Also, the IC50 (FFLUC_HILL_SLOPE 15.4, FFLUC_R_SQUARED 0.775, read-out: LUCIFERASE INFECTION ASSAY - IC50) is above 10 µM.

As for `Cn1c(CNC(=O)c2ccc(Cl)cc2)nc2ccccc21`, the IC90 is above 11 µM. Besides, the IC50 under setting [1] was above 11 µM.

Take `c1ccc(-c2cc3c(Oc4cccc5ccccc45)ncnc3s2)cc1`: the IC90 is above 10 µM. Moreover, the IC50 (FFLUC_HILL_SLOPE 2.93, FFLUC_R_SQUARED 0.065, PBLUC_HILL_SLOPE 1.19, PBLUC_R_SQUARED 0.417, read-out: LUCIFERASE INFECTION ASSAY - IC50) is 2.85 µM.

Take `COc1cc(OC)c(C(=O)/C=C/c2cnc(N3CCCC3)nc2)cc1Cl`: the IC90 was above 10 µM. Under setting [1], the IC50 is 7.4 µM.

As to `CO/N=C(/CS(=O)(=O)c1ccc(Cl)cc1)c1ccc(Cl)cc1`, the IC90 is 3.25 µM. Further, the IC50 (HEPG2TOX_HILL_SLOPE 1.88, HEPG2TOX_R_SQUARED 0.932, PBLUC_HILL_SLOPE 2.15, PBLUC_R_SQUARED 0.742, read-out: LUCIFERASE INFECTION ASSAY - IC50) was found to be 1.17 µM.

In the case of `CCNC(=O)c1nn(Cc2ccccc2)c2c1CC(NCc1ccc(Cl)s1)CC2` (configuration not stated), the IC90 is above 7.69 µM. The IC50 (PBLUC_HILL_SLOPE 15.3, PBLUC_R_SQUARED 0.172, read-out: LUCIFERASE INFECTION ASSAY - IC50) was 7.58 µM.

For the molecule `CCCN(Cc1nc(-c2ccccc2)c2ccccc2n1)Cc1nc2ccsc2c(=O)[nH]1`, the IC90 is above 10 µM. In addition, under setting [1], the IC50 is above 10 µM.

As to `COC(=O)c1c(C)[nH]c(C(=O)C(C)Sc2nnc(Cc3cccc4ccccc34)n2C2CCCCC2)c1C` (configuration not stated), the concentration for an effect of 90% (IC90) is above 10 µM. For the same molecule, where the note is “FFLUC_HILL_SLOPE 16.1, FFLUC_R_SQUARED 0.161, read-out: LUCIFERASE INFECTION ASSAY - IC50”, the IC50 is above 10 µM.

Consider `O=C(CCN1CCOCC1)Nc1cc(C(F)(F)F)ccc1Cl`, for which the IC90 was above 9.8 µM. Moreover, under setting [1], the concentration for half-maximal inhibition (IC50) is above 9.8 µM.

Turning to `CC(=O)N1CCc2cc(C(=O)C(C)OC(=O)/C(=C/c3ccc(F)cc3)c3cccs3)ccc21` (configuration not stated), the IC90 is above 10 µM. In addition, under setting [1], the IC50 was found to be 7.08 µM.

Take `CC(=O)Nc1cccc(-c2ccnc3c2CC(C)(C(=O)NCc2cccc(Cl)c2)O3)c1` (configuration not stated): the IC90 is above 7.57 µM. For the same molecule, the IC50 (FFLUC_HILL_SLOPE 12.6, FFLUC_R_SQUARED 0.486, HEPG2TOX_HILL_SLOPE 12, HEPG2TOX_R_SQUARED 0.561, PBLUC_HILL_SLOPE 2.25, PBLUC_R_SQUARED 0.29, read-out: LUCIFERASE INFECTION ASSAY - IC50) was 4.2 µM.

With `Clc1cccc(Cl)c1/C=C/c1nc2ccccc2n1Cc1ccccc1`, the IC90 was above 8.7 µM. Further, under “HEPG2TOX_HILL_SLOPE 4.4, HEPG2TOX_R_SQUARED 0.96, PBLUC_HILL_SLOPE 4.2, PBLUC_R_SQUARED 0.29, read-out: LUCIFERASE INFECTION ASSAY - IC50”, the IC50 was 5.61 µM.

`COC(=O)c1ccc2[nH]c3c(c2c1)CN(c1ncnc2ccccc12)CC3`: the IC90 stood at 9.79 µM. The IC50 (HEPG2TOX_HILL_SLOPE 2.18, 2.21, HEPG2TOX_R_SQUARED 0.310, 0.448, PBLUC_HILL_SLOPE 1.05, 1.29, PBLUC_R_SQUARED 0.612, 0.824, read-out: LUCIFERASE INFECTION ASSAY - IC50) was 1.63 µM.

For the molecule `FC(F)(F)c1ccc(Nc2ccc3c(c2)CCC3)nc1`, the IC90 was above 10 µM. Also, under setting [1], the IC50 was above 10 µM.

`CCOc1ccc(C(C)=O)cc1CSc1nnc(-c2ccc(F)cc2)c2ccccc12`: the IC90 is above 10 µM. For the same molecule, the IC50 under setting [1] is above 10 µM.

Turning to `C=C(C)C/N=c1\scc(-c2ccc(OC)cc2OC)n1/N=C(\C)c1ccc(OC)cc1`, the IC90 was above 10 µM. In addition, the IC50 (FFLUC_HILL_SLOPE 13, FFLUC_R_SQUARED 0.36, read-out: LUCIFERASE INFECTION ASSAY - IC50) was above 10 µM.

Consider `COc1ccc(/C=C2\CCCC3C2=NN(C(=O)CSc2ccccn2)C3c2ccc(OC)cc2)cc1` (configuration not stated), for which the IC90 was 9.76 µM. Moreover, for the setting “PBLUC_HILL_SLOPE 1.58, PBLUC_R_SQUARED 0.267, read-out: LUCIFERASE INFECTION ASSAY - IC50”, the IC50 was determined as 2.44 µM.

For the molecule `COc1ccc(OC)c(-c2cs/c(=N\c3cccc(C)c3C)n2/N=C/c2ccc(C#N)cc2)c1`, the IC90 is above 10 µM. Moreover, under “HEPG2TOX_HILL_SLOPE 2.44, HEPG2TOX_R_SQUARED 0.954, PBLUC_HILL_SLOPE 4.56, PBLUC_R_SQUARED 0.492, read-out: LUCIFERASE INFECTION ASSAY - IC50”, the half-maximal inhibitory concentration (IC50) was found to be 6.34 µM.

As to `FC(F)(F)Oc1cccc(-c2cnc3ccc(-c4cccs4)nn23)c1`, the IC90 came to 7.53 µM. Further, the IC50 (PBLUC_HILL_SLOPE 4.13, PBLUC_R_SQUARED 0.323, read-out: LUCIFERASE INFECTION ASSAY - IC50) turned out to be 4.43 µM.

With `CN1CCN(c2ccc(-c3cn4c(-c5cccc(O)c5)cnc4cn3)cc2)CC1`, the IC90 was above 8.56 µM. Further, the IC50 (HEPG2TOX_HILL_SLOPE 8.09, HEPG2TOX_R_SQUARED 0.0909, PBLUC_HILL_SLOPE 1.65, PBLUC_R_SQUARED 0.318, read-out: LUCIFERASE INFECTION ASSAY - IC50) was 7.19 µM.

On to `CNC(=O)c1cccc(-c2ccc3ncc(-c4cccc(C(F)(F)F)c4)n3n2)c1`, for which the IC90 stood at 2.95 µM. Also, the IC50 (HEPG2TOX_HILL_SLOPE 1.58, HEPG2TOX_R_SQUARED 0.903, PBLUC_HILL_SLOPE 3.01, PBLUC_R_SQUARED 0.663, read-out: LUCIFERASE INFECTION ASSAY - IC50) amounted to 1.42 µM.

Regarding `CCN(CC)c1ccc(S(=O)(=O)N2CCCCC2)cc1NC(=O)c1ccc2c(c1)nnn2CC`, the IC90 was above 10 µM. For the same molecule, the IC50 (FFLUC_HILL_SLOPE 1.06, FFLUC_R_SQUARED 0.385, read-out: LUCIFERASE INFECTION ASSAY - IC50) is above 10 µM.

For the molecule `Cc1nc2ccccc2n1CCC(=O)Nc1ccc2ccccc2c1`, the concentration for an effect of 90% (IC90) was above 10 µM. The IC50 (PBLUC_HILL_SLOPE 2.97, PBLUC_R_SQUARED 0.444, read-out: LUCIFERASE INFECTION ASSAY - IC50) worked out at 7.73 µM.

As to `Cc1nnsc1C(=O)Nc1nc(C(F)(F)F)c(-c2ccccc2)s1`, the IC90 was above 8.91 µM. Also, the IC50 (HEPG2TOX_HILL_SLOPE 1.46, HEPG2TOX_R_SQUARED 0.922, PBLUC_HILL_SLOPE 11.5, PBLUC_R_SQUARED 0.414, read-out: LUCIFERASE INFECTION ASSAY - IC50) was found to be 8.03 µM.

The IC50 is the midpoint of a concentration-inhibition curve. Usually IC90 stands for the concentration at which the effect reaches the 90% level.
